According to patent US5254727A, “Acyclic tricarboxylic acid compounds” (Merck & Co., Inc., priority 1992, dated 1993):

Legend:
[1] = target: T1, squalene synthetase from human HEPG2 cells (Homo sapiens, UniProt P37268); assay: Squalene synthetase assay using HepG2 cell enzyme; type: biochemical; settings: 3 μM 3H-farnesyl pyrophosphate, 30° C., 20 min
T1 construct: The resulting pellet from the 34,000 rpm centrifugation, containing the squalene synthetase, was resuspended in 5 mL of enzyme suspension buffer; endogenous in cells; host or cells: HepG2 cells (ATCC HB 8065), pellet of the 34,000 rpm centrifugation (microsomal)
T1 sequence (P37268 1-417): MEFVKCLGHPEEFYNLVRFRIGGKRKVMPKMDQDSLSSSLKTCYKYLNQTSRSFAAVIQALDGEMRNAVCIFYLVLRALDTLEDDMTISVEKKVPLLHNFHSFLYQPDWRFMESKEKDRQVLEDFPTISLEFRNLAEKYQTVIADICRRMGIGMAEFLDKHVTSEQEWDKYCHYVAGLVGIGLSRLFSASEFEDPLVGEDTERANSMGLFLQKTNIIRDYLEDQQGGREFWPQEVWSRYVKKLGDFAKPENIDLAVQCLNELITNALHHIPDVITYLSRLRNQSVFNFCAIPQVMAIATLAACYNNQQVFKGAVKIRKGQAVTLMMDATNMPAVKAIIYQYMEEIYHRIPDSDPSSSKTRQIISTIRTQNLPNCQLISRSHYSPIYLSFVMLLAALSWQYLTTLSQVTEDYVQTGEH
Procedure: A. SQUALENE SYNTHETASE ASSAY USING HEPG2 CELL ENZYME
1. Preparation of Human HepG2 Cell Enzyme
Source: HEPG2 CELL LINE (Liver, hepatoblastoma, Human) ATCC No. HB 8065
Cell Growth and Maintenance: Culture Medium: Minimum essential medium (MEM) with non-essential amino acids, sodium pyruvate, and 10% fetal bovine serum. The medium was changed twice weekly. A confluent monolayer was acheived in 1 week. The growth medium was prepared as listed below.
Subculture Procedure: The medium was removed and washed with PBS (Phosphate-Buffered Saline 15.6 mM, pH 7.0). Fresh trypsin (0.25%)-EDTA (0.02%) with Hank's Balanced Salt solution was added and the flask was allowed to stand for a minute before the trypsin solution was removed. The flask was incubated at 37° C. until cells detached. Fresh medium was added and the cells were dispersed and dispensed into new flasks. Subcultivation ratio: 1:6.
Preparation of Delipidated Serum: Fetal calf serum (100 ml) and CAB-O-Sil (2 grams) were stirred overnight at 4° C. and centrifuged at 16,000 rpm for 5 hrs. […]
Harvest: The medium was removed and the cells were washed with PBS. […] Cells were counted (2.5×10^9 yield from 18 flasks (75 cm^2)), and resuspended in 10 mL of 50 mM HEPES (N-[2-Hydroxyethyl]piperazine-N'-[2-ethane-sulfonic acid]) containing 5 mM MgCl2, 2 mM MnCl2, 10 mM DTT (dithiothreitol), pH 7.5 (enzyme suspension buffer). […]

[2] = target: T2, squalene synthetase, rat liver microsomes (Rattus norvegicus, UniProt Q02769); assay: Squalene synthetase assay using rat liver enzyme; type: biochemical; settings: rat liver microsomal enzyme, [4-14C]farnesyl pyrophosphate, 30° C., 20 min
T2 construct: from tissue; host or cells: liver microsomes of male Charles River CD rats fed 0.1% lovastatin
T2 sequence (Q02769 1-416): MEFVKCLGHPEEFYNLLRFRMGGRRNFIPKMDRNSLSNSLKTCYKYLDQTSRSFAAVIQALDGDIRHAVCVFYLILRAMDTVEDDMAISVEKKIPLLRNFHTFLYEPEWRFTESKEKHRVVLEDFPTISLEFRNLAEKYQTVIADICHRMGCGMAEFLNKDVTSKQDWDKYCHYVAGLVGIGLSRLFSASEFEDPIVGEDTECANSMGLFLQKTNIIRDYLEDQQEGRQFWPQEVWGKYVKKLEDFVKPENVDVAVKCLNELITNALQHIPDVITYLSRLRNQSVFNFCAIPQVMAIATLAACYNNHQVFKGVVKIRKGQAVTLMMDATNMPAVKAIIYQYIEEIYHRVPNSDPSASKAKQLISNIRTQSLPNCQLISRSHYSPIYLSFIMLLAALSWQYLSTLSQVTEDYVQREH
Procedure: B. SQUALENE SYNTHETASE ASSAY USING RAT LIVER ENZYME
Preparation of Rat Liver Microsomes: Male, Charles River CD rats (120 to 150 g) were fed a diet containing 0.1% lovastatin for 4 days. The livers from these rats were homogenized in 5 volumes (ml/g) of ice cold 50 mM HEPES (4-(2-hydroxyethyl)-1-piperazine-ethanesulfonic acid), 5 mM EDTA(ethylenediaminetetra-acetic acid) pH 7.5 with a Potter-Elvehjem type tissue grinder. The homogenate was centrifuged twice at 20,000×g for 15 minutes at 4° C., discarding the pellet each time. The supernatant was then centrifuged at 100,000×g for 1 hour at 4° C. The resulting microsomal pellet was resuspended in a volume of the above homogenizing buffer equal to one-fifth the volume of the original homogenate. This microsomal preparation has a protein concentration of about 7 mg/ml. The microsomal suspensions were stored in aliquots at -70° C. Squalene synthetase activity in these aliquots is stable for at least several months.
Partial Purification of Prenyl Transferase: Prenyl transferase was purified to use in the enzymatic synthesis of radiolabelled farnesyl pyrophosphate [FPP]. Prenyl transferase was assayed by the method of Rilling (Methods in Enzymology 110, 125-129 (1985)) and a unit of activity is defined as the amount of enzyme that will produce 1 μmole of farnesyl pyrophosphate per minute at 30° C. in the standard assay. […]

CC(C/C=C/c1ccccc1)CC(C)CCCCCC(C(=O)O)C(O)(CC(=O)O)C(=O)O (centres unmarked) [Compound IA]
IC50 [1]: ~145 nM
IC50 [2]: 767 nM
